From patent US20260242440A1, “NOVEL MEANS TO MODULATE NMDA RECEPTOR-MEDIATED TOXICITY” (FUNDAMENTAL PHARMA GMBH, priority 2018, published 2026)
Entries after “also recorded” stand apart in the source; their conditions may differ.

What was measured:
HEK293 cells = test: Luminescent cytotoxicity assay, HEK293 cells transfected with GRIN1 and GRIN2A or GRIN2B; format: cell-based, human; conditions: compound added 6 h after transfection; cell death 48 h after transfection
Procedure: HEK293 cells were cultured in Dulbecco's Modified Eagle Medium (DMEM, Gibco™ 41965-039) supplement with 10% Fetal Bovine Serum (FBS, Gibco™, 10270), 1% Sodium Pyruvate (Gibco™, 11360070), 1% MEM NEAA (GibcoT^M, 11140035) and 0.5% Penicillin-Streptomycin (P-S; Sigma, P0781) and Passagel5-25 were used for experiments.
To test the cytotoxicity of compounds according to the present invention, HEK293 cells (70-80% confluent) were transfected 24 hours after plating with both GRIN1 and GRIN2 Å or GRIN2B, respectively (1:[…]) with Lipofectamine 2000 according to manufacturer's instructions. The relative number of dead cells in the population at the indicated time points after transfection was measured with the CytoTox-Glo™ Cytotoxicity assay (Promega, G9290) according to manufacturer's instruction with minor modification. Briefly, 10% of total medium were mixed with 10 μL AAF-amino luciferin to reach a final volume at 200 μL with water, the dead cell relative luminescence units (DRLU) was measured by GloMax (Promega) in a 96 well white bottom polystyrene microplate (Corning Costar®, 3912). After all the measurements, lysis reagents have been added to the cells and 10% of lysate was used for the total cell relative luminescence units (TRLU) measurement. Cell death was calculated by the following equations: […]
For drug testing, P4, P8, P9, P13 and P15 were added to the medium at indicated concentration 6 h after transfection. DRLU, TRLU and cell death were measured and calculated 48 h after transfection.

NMDA receptor = test: NMDA-induced calcium transients (Fura2 calcium imaging); format: cell-based, mouse; conditions: hippocampal neurons, 6 min NMDA (20 μM) application
Procedure: In a further experiment, the impact of P4 and P15 on NMDA-induced calcium transients was assessed. Briefly, for calcium imaging, primary hippocampal neurons on coverslips were loaded with the cell-permeable, high-affinity ratiometric calcium indicator Fura2-AM (Invitrogen™ F1221), at 1 μM in CO2-independent culture medium (CICM; CICM contains: 10 mM HEPES, 140 mM NaCl, 2.5 mM KCl, 1.0 mM MgCl2, 2.0 mM CaCl2, 1.0 mM Glycine, 35.6 mM Glucose and 0.5 mM Na-pyruvate) for 30 min at 37° C., then washed and left in CICM for another 30 min to allow for de-esterification. Fura2 was excited at 340/11 nm and 380/11 nm, and fluorescence emission was obtained from a 40× UV compatible objective (LUMPLFLN, Olympus) through a 510/20 nm emission filter. For quantification, ImageJ was used to calculate average background-subtracted fluorescence intensities for 340 and 380 nm excitation (F340 and F380) from each neuron. Intracellular calcium levels were plotted as F340/F380 ratios over time, from which the NMDA response amplitude and area under the curve (AUC) was calculated to quantify NMDA-induced calcium influx.

synaptic NMDA receptor = test: Gabazine induced calcium influx into mitochondria (synaptic NMDA receptor signalling); format: cell-based, mouse; conditions: primary cultured neurons, polypeptides expressed via rAAV
Procedure: Gabazine induced mitochondrial Ca^2+ response in primary cultured neurons is recorded and analysed as described in a previous study (Qiu et al, Nat Commun. 2013; 4:2034, incorporated herewith by reference) using a FRET calcium indicator 4mtD3cpv that specifically located to mitochondria. Briefly, mitochondrial Ca^2+ levels were detected with FRET-based and mitochondrial targeted Ca^2+ indicator 4mtD3cpv. 4mtD3cpv were excited at 430±12 nm (CFP) and 500±10 nm (YFP), and emission of CFP (470±12 nm) and YFP (535±15 nm) were separated and filtered using a DualView beam splitter (AHF Analysentechnik and MAG Biosystems), and all fluorescence images were recorded through a 20× water-immersion objective at 1 Hz.
In a further experiment the inventors assessed the impact of the polypeptide comprising the sequence of SEQ ID NO:5 and SEQ ID NO: 54, respectively, on Gabazine induced calcium influx (mitochondria), a measure of synaptic NMDA receptor signalling. The experiment was carried out in primary cultured neurons as described above.

Compound	NMDA receptor induced cell death (HEK293 cells)	NMDA-induced calcium transients (NMDA receptor)	Gabazine induced calcium influx into mitochondria (synaptic NMDA receptor)
CCN(CCN)Cc1cccc(Br)c1 [P4]	reduced the level of NMDA receptor induced cell death	neither compound P4 nor compound P15 reduced; also recorded: neither compound P4 nor P15 reduced	
SEQ ID NO:5: polypeptide, amino acid residues 633-689 of mouse TRPM4 (NSEERAARLLLRRCPLWGEATCLQLAMQADARAFFAQDGVQSLLTQKWWGEMDSTTP; listed as Mus musculus)			neither of these polypeptides affects synaptic NMDA receptor signalling; also recorded: not affected
